This is an account of results in patent US20230084927A1, “GLUCOSE UPTAKE INHIBITORS AND USES THEREOF” (METABOMED LTD., priority 2019, published 2023).

The subject of test [1] is UOK269-WT (re-expression of SDHB). Nature of the test: Cell viability in SDH-deficient/proficient isogenic pairs. The class given is cell-based, Human. How it is done:
(§1) The cells were grown in DMEM F12 supplemented with 1 mM Glutamine+3% FBS were treated with different concentrations of the indicated compounds. Cell viability was determined 72 hours later by CellTiter Glue reagent (Promega), the luminescence was measured with ClarioStar reader (BMG) and the EC50s were calculated by Prism. Murine SDHB-WT/KO, HRAS transformed isogenic pair (FIG. 12A); UOK269, Human Tumor-derived SDHB-deficient RCC in their WT counterpart with re-expression of SDHB (FIG. 12B); and ACHN, RCC cells, and their SDHB-KO (SDHB CRISPRed out) isogenic cells (FIG. 12C).

The subject of another test is UOK269 (SDHB-def.) RCC. Described as above. The format is cell-based, Human. Here is the method: as §1
Test [2] relates to m+3 lactate secretion (glycolysis) in SDH-WT cells. Nature of the test: Glycolysis inhibition (IC50 Lactate m+3). The class given is cell-based. As to conditions: 1 h, 25 mM 13C-glucose, one hour. How it is done: (§2) Glycolysis Inhibition (IC50 Lactate m+3)
(§3) Cell were plated in DMEM, 25 mM Glucose, 1 mM Pyruvate, 1 mM Glutamine and 10% Dialyzed serum in 96 well plates in triplicates. The day after the medium was replaced to fresh medium with 25 mM ^13C-glucose and treated with different concentrations of the compounds as indicated. One hour later the medium was collected and the level of m+3 lactate was determined by LC-MS. The IC50 of inhibition of m+3 lactate secretion into the medium was calculated with Prism.

Test [3] concerns m+3 lactate secretion (glycolysis) in SDH-KO cells. Kind of test: Glycolysis inhibition (IC50 Lactate m+3). The format is cell-based. The note with it: 1 h, 25 mM 13C-glucose, one hour. How it is done:
as §2, §3

The subject of test [4] is 2-DeoxyGlucose phosphorylation in murine SDH-WT cells. Nature of the test: 2 DG phosphorylation assay. The format is cell-based. As to conditions: Mus musculus, 0.25 h, 15 min, LC-MS. How it is done: IC50 of compound 145 and GluT1 inhibitor […] in a 2 DG phosphorylation assay was done using murine SDH-WT cells. The cells were treated for 15 min with the indicated compound at different concentrations in the presence of 2 DG. 2 DG phosphorylation was determined by LC-MS analysis and the inhibition IC50 was determined by Prism software.

The test system of test [5] is KG1 (Acute Myelogenous Leukemia). Nature of the test: Toxicity assay with or without rotenone. The class given is cell-based. As to conditions: 72 hours. Here is the method:
(§4) Toxicity assay: Cells were growing in 96 well plates in DMEM F12 with 17 mM glucose, 0.5 mM Sodium Pyruvate, 1 mM Glutamine and 3% FBS. The cells were treated with the indicated compounds (10 different concentrations) with or without 25 nM rotenone. Viability was determined after 72 hours of treatment using CellTiter Glo reagent (Promega). EC50 was calculated using Prism software.

The subject of another test is OV-90 (Ovarian cancer). Kind of test: Toxicity assay with or without rotenone. The note with it: Homo sapiens, 72 hours. The class given is cell-based. Here is the method: as §4
In test [6] the test system is SDH-KO, Murine HRAS-transformed, SDHB-deficient cells. Nature of the test: Toxicity assay with or without rotenone. The class given is cell-based. As to conditions: Mus musculus, 72 hours. How it is done:
as §4

Test [7] has as its system SDH-WT, Murine HRAS-transformed cells. Nature of the test: Toxicity assay with or without rotenone. The class given is cell-based. As to conditions: Mus musculus, 72 hours. Here is the method: as §4
For test [8], the system named is THP1 (Acute Monocytic Leukemia). Kind of test: Toxicity assay with or without rotenone. The format is cell-based. The note with it: Homo sapiens, THP-1, 72 hours. Here is the method:
as §4

The target in test [9] is T1, GLUT3 transporter (DLD1-GLUT1−/− cells) (Homo sapiens, UniProt P11169).
T1 construct: DLD1-GLUT1−/− cells (Horizon discovery) for GLUT3 transporter; host or cells: DLD1-GLUT1−/−
T1 sequence (P11169 whole entry): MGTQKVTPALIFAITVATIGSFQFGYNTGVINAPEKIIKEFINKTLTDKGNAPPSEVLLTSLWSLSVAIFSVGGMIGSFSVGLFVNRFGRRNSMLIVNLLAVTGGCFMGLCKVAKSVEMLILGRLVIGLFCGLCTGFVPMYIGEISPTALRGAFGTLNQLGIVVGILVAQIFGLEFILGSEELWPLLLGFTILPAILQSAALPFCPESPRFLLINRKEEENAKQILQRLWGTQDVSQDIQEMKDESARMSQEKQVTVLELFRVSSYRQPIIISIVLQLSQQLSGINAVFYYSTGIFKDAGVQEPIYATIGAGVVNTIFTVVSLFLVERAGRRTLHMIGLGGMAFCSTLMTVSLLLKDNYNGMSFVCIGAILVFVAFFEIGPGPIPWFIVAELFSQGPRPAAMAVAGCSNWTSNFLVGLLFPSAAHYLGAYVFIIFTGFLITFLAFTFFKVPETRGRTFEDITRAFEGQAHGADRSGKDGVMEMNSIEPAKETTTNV
Nature of the test: Glucose transporter selectivity assay. The format is cell-based. As to conditions: 10 mM glucose, 1 uM Rotenone, 15 min, read-out: IC50 (nM) DLD-Glut1−/− Glut3. How it is done: (§5) Glucose transporter selectivity assays were done as described by Siebeneicher et al (ChemMedChem 2016, 11, 1-12) with the following adjustments; DLD1 cells for GLUT1 transporter, DLD1-GLUT1−/− cells (Horizon discovery) for GLUT3 transporter and DLD1-GLUT1−/− overexpressing hGLUT2 cells for GLUT2 transporter. The cells were plated overnight in 96-well plate at 80% confluency in starvation medium (DMEM without glucose, 0.5 mM glutamine, 1 mM pyruvate and 1% FBS). The cells were then pretreated for 30 min with 1 uM Rotenone and the inhibitors (compound 145) at different concentrations. The assay was initiated by adding glucose (5 mM for DLD1 cells, 10 mM for DLD1-Glut1−/−) or fructose (10 mM for DLD1-Glut1−/−(hGLUT2) cells) and the plates were incubated for 15 min at 37° C. At the end of the incubation Cell-titer Glo was added to the wells and luminescence was measured. The inhibition IC50 was calculated using Prism software.

Test [10] has as its target T2, GLUT1 transporter (DLD1 cells) (Homo sapiens, UniProt P11166).
T2 construct: DLD1 cells for GLUT1 transporter; endogenous in cells; host or cells: DLD1 (DLD1-WT)
Nature of the test: Glucose transporter selectivity assay. The class given is cell-based. As to conditions: 5 mM glucose, 1 uM Rotenone, 15 min, read-out: IC50 (nM) DLD1-WT Glust1. How it is done:
as §5

Test [11] has as its target T3, GLUT2 transporter (DLD1-GLUT1−/− overexpressing hGLUT2 cells) (Homo sapiens, UniProt P11168).
T3 construct: expressed in transfected cells; host or cells: DLD1-GLUT1−/−
Kind of test: Glucose transporter selectivity assay. The format is cell-based. The note with it: 10 mM fructose, 1 uM Rotenone, 15 min, read-out: IC50 (nM) DLD-Glut1−/− (Glut2) Glut2. Here is the method:
as §5

Where [12] appears, read: Homo sapiens, tumor-derived, 72 hours.
Where [13] appears, read: with 25 nM rotenone, read-out: EC50 (nM) with Rotenone.
Setting [14] is: without rotenone, read-out: EC50.

Where two headings read alike, the source gives them in different places.

T2 sequence (P11166 whole entry): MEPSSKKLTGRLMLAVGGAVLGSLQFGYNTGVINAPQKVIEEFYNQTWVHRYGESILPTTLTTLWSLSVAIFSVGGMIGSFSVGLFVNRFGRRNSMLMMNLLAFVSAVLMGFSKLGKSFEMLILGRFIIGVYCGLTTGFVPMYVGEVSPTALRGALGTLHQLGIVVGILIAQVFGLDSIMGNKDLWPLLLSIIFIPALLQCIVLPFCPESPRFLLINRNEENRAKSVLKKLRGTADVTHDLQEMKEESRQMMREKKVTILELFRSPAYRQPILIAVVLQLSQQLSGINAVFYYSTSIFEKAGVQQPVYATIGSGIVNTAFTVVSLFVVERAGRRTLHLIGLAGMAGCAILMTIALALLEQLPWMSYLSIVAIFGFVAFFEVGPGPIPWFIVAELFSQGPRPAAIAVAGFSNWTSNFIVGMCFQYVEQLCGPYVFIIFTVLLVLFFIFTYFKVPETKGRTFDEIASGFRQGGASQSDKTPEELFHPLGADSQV
T3 sequence (P11168 whole entry): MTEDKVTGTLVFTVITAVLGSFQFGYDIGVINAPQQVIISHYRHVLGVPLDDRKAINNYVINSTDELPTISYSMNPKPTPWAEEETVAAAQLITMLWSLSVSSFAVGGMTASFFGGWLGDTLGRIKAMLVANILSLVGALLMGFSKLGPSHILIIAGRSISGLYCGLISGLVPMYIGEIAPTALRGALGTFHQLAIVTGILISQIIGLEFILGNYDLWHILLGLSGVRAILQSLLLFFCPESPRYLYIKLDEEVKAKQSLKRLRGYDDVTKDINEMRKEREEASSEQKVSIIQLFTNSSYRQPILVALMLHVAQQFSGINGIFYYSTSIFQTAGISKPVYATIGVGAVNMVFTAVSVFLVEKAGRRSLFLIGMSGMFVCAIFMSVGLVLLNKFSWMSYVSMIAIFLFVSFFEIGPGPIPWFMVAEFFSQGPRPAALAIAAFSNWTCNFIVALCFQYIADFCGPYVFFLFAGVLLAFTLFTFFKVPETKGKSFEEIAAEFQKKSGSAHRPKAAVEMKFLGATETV

Consider `CC1(C)Cc2nc3sc4c(NCCc5ccc6[nH]cnc6c5)ncnc4c3cc2CO1` [Compound 145], for which the results for the “Ratio BAY-876/COMP 145” value (in test [1]; in the test on UOK269 (SDHB-def.) RCC) were 2.9 and 8.8, respectively. In addition, the EC50 – broadly, the concentration at which the effect is half-maximal – amounted to 1830 nM in test [1] (setting [12]); 1.7 nM with UOK269 (SDHB-def.) RCC (setting [12]); 16 nM in [5] (KG1, with 25 nM rotenone, read-out: EC50 (nM) with Rotenone); 3200 nM in test [5] (KG1, without rotenone, read-out: EC50); 15 nM with OV-90 (Ovarian cancer) (OV-90, with 25 nM rotenone, read-out: EC50 (nM) with Rotenone); 825 nM with OV-90 (Ovarian cancer) (OV-90, without rotenone, read-out: EC50). The EC50 amounted to 3 nM in [6] (setting [13]); 3 nM in test [6] (setting [14]); 3 nM in test [7] (setting [13]); 210 nM in test [7] (setting [14]); 16 nM in test [8] (THP1, with 25 nM rotenone, read-out: EC50 (nM) with Rotenone); 1100 nM in test [8] (THP1, without rotenone, read-out: EC50). In addition, the IC50 in [2] came to 1.7 nM; in test [3], 6.1 nM; in [4], 9.7 nM; in test [9] it was 2 nM; in [10], 19 nM; in test [11], 14 nM.
